Legend:
Assay type in all cases: in vivo, Sprague-Dawley rats
Details in all cases: 5% DSS in drinking water for 9 days then 2% for 18 days, feces
[1] = tested on: Enterobacteria; test: fecal Enterobacteria count in rats
Description: (§1) The animal experiment was conducted as follows: Male Sprague-Dawley rats (n=32) aged 10 months were randomly distributed into 4 experimental groups (described below). During an 8 days acclimatization period, rats had free access to tap water and received a control diet or diets supplemented in amino acids as described below. After this adaptation period, Dextran Sulfate Sodium (DSS)-treated rats received 5% DSS (w/v) in their drinking water for the first 9 days of the experiment and 2% DSS for the following 18 days to induce a chronic colitis.
(§2) ii) Group “DSS”: rats were fed ad libitum with the control diet. They received DSS (free access) dissolved in their drinking water as previously described.
(§3) At the end of the experiment, fecal samples were collected from animals with a sterile spoon into sterile tubes, frozen (liquid nitrogen) in 10% glycerol and then stored at −80° C. until analysis. The fecal microbiota was analyzed quantitatively for Enterobacteria, Bacteroides, Enterococci, Lactobacilli and Bifidobacteria species according to standard methods. Bacteria were counted using selective or semi-selective media. The counts were expressed as log (base 10) cfu/g feces with a lower detection limit of 3.30 log cfu/g and 5.50 log cfu/g of feces for Bacteroides.
(§4) Data are expressed as mean±SEM. […]

[2] = tested on: Enterococci; test: fecal Enterococci count in rats
Description: as §1, §2, §3, §4

[3] = tested on: Lactobacilli; test: fecal Lactobacilli count in rats
Description: as §1, §2, §3, §4

[4] = tested on: Bacteroides; test: fecal Bacteroides count in rats
Description: as §1, §2, §3, §4

Substance: Dextran Sulfate Sodium [DSS]
- Enterobacteria counts compared to controls [1]: significantly decreased
- Enterococci counts compared to controls [2]: significantly decreased
- Lactobacilli counts compared to controls [3]: significantly decreased
- Bacteroides counts compared to controls [4]: increased

Reference: US20180153842A1, “AMINO ACID SUPPLEMENTATION FOR A HEALTHY MICROBIOTA ECOSYSTEM” (NESTEC S.A., priority 2003, published 2018)
